In US8394789B2, “(Dihydro)pyrrolo[2,1-α]isoquinolines” (MSD Oss B.V., priority 2008, dated 2013):

The compounds below were run against T1, human FSH receptor (Homo sapiens, UniProt P23945) (assay: hFSHRago (CHO luc): agonistic activity at the human FSH receptor expressed in CHO cells, CRE-luciferase reporter). Settings: CHO cells stably transfected with human FSH receptor and CRE/luciferase reporter; 4 hours of incubation.
T1 construct: expressed in transfected cells
T1 sequence (P23945 18-695): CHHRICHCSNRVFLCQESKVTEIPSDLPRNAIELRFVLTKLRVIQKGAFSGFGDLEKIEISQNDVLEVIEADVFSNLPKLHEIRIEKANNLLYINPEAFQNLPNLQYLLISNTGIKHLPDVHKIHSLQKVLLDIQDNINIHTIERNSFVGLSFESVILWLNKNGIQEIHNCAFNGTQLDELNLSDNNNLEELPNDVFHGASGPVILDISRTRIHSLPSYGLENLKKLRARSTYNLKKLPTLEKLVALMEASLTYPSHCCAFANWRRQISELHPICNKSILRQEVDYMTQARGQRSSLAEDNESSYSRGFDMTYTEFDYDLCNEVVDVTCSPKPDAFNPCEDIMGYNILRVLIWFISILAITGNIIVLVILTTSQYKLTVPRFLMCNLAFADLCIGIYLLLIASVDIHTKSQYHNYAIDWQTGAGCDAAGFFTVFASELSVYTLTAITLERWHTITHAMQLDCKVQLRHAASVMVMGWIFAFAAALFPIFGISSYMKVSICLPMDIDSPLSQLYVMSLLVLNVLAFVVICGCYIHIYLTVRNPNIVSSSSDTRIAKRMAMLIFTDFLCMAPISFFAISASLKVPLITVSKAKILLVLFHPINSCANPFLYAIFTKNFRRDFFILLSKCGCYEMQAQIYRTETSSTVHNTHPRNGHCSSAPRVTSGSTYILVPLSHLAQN
Type: cell-based

Compound | EC50
COc1cc2c(cc1OC)-c1c(C3=CCCCC3)cc(C(=O)N(C)C(C)(C)C)n1CC2 [Example 110, 1-Cyclohex-1-enyl-8,9-dimethoxy-5,6-dihydro-pyrrolo[2,1-α]isoquinoline-3-carboxylic acid tert-butyl-methyl-amide] | 76.5 nM
COc1cc2c(cc1OC(C)C)-c1c(-c3cccs3)cc(C(=O)C(C)N3CCCN(C(C)=O)CC3)n1CC2 (stereo not drawn) [Example 49, 2-(4-Acetyl-[1,4]diazepan-1-yl)-1-(9-isopropoxy-8-methoxy-1-thiophen-2-yl-5,6-dihydro-pyrrolo[2,1-α]isoquinolin-3-yl)-propan-1-one] | 200 nM
COc1cc2c(cc1OC(C)C)-c1c(-c3ccccn3)cc(C(=O)N3CCCN(C(=O)c4ccccn4)CC3)n1CC2 [Example 35, (9-Isopropoxy-8-methoxy-1-pyridin-2-yl-5,6-dihydro-pyrrolo[2,1-α]isoquinolin-3-yl)-[4-(pyridine-2-carbonyl)-[1,4]diazepan-1-yl]-methanone; trifluoro acetic acid] | 244 nM
CCOC(=O)COc1cc2c(cc1OC)CCn1c(C(=O)N(C)C(C)(C)C)cc(-c3cccs3)c1-2 [Example 63, [3-(tert-Butyl-methyl-carbamoyl)-8-methoxy-1-thiophen-2-yl-5,6-dihydro-pyrrolo[2,1-α]isoquinolin-9-yloxy]-acetic acid ethyl ester] | 252 nM
COc1cc2c(cc1OC(C)C)-c1c(-c3cccs3)cc(C(=O)N3CCNC(=O)CC3)n1CC2 [Example 13, 1-(9-Isopropoxy-8-methoxy-1-thiophen-2-yl-5,6-dihydro-pyrrolo[2,1-α]isoquinoline-3-carbonyl)-[1,4]diazepan-5-one] | 106 nM
CCN(C(=O)c1cc(-c2cccs2)c2n1CCc1c-2cc(OC)c(OC)c1C)C(C)C [Example 114, 8,9-Dimethoxy-7-methyl-1-thiophen-2-yl-5,6-dihydro-pyrrolo[2,1-α]isoquinoline-3-carboxylic acid ethyl-isopropyl-amide] | 321 nM
COc1cc2c(cc1OC(C)C)-c1c(-c3cccs3)cc(C(=O)NC3C[C@@H]4CN(C(C)=O)C[C@@H]4C3)n1CC2 (stereo partly drawn) [Example 23, 9-Isopropoxy-8-methoxy-1-thiophen-2-yl-5,6-dihydro-pyrrolo[2,1-α]isoquinoline-3-carboxylic acid (2-acetyl-octahydro-cyclopenta[c]pyrrol-5(endo)-yl)-amide] | 787 nM
COc1cc2c(cc1NC(=O)CN1CCOCC1)-c1c(-c3cccs3)cc(C(=O)N3CCCC3(C)C)n1CC2 [Example 101, N-[3-(2,2-Dimethyl-pyrrolidine-1-carbonyl)-8-methoxy-1-thiophen-2-yl-5,6-dihydro-pyrrolo[2,1-α]isoquinolin-9-yl]-2-morpholin-4-yl-acetamide] | 2 nM
COc1cc2c(cc1OCCN(C)C)-c1c(-c3cccs3)cc(C(=O)N(C)C(C)(C)C)n1CC2 [Example 73, 9-(2-Dimethylamino-ethoxy)-8-methoxy-1-thiophen-2-yl-5,6-dihydro-pyrrolo[2,1-α]isoquinoline-3-carboxylic acid tert-butyl-methyl-amide; trifluoro acetic acid] | 118 nM
COc1cc2c(cc1CC(C)C)-c1c(-c3nccs3)cc(C(=O)N(C)C(C)(C)C)n1CC2 [Example 60, 9-Isobutyl-8-methoxy-1-thiazol-2-yl-5,6-dihydro-pyrrolo[2,1-α]isoquinoline-3-carboxylic acid tert-butyl-methyl-amide] | 19 nM
CN(C(=O)c1cc(-c2cccs2)c2n1CCc1ccc(N3CCCC3=O)cc1-2)C(C)(C)C [Example 88, 9-(2-Oxo-pyrrolidin-1-yl)-1-thiophen-2-yl-5,6-dihydro-pyrrolo[2,1-α]isoquinoline-3-carboxylic acid tert-butyl-methyl-amide] | 310 nM
COc1cc2c(cc1O)-c1c(-c3cccs3)cc(C(=O)N(C)C(C)(C)C)n1CC2 [Example 52, 9-Hydroxy-8-methoxy-1-thiophen-2-yl-5,6-dihydro-pyrrolo[2,1-α]isoquinoline-3-carboxylic acid tert-butyl-methyl-amide] | 356 nM
COc1cc2c(cc1OC)-c1c(-c3cccs3)cc(C(=O)N3CC[C@@H](NC(=O)N(C)C)C3)n1CC2 [Example 106, 3-[(R)-1-(8,9-Dimethoxy-1-thiophen-2-yl-5,6-dihydro-pyrrolo[2,1-α]isoquinoline-3-carbonyl)-pyrrolidin-3-yl]-1,1-dimethyl-urea] | 755 nM
COc1cc2c(cc1N1CCN(C)CC1)-c1c(-c3cccs3)cc(C(=O)N(C)C(C)(C)C)n1CC2 [Example 54, 8-Methoxy-9-(4-methyl-piperazin-1-yl)-1-thiophen-2-yl-5,6-dihydro-pyrrolo[2,1-α]isoquinoline-3-carboxylic acid tert-butyl-methyl-amide] | 455 nM
COc1cc2c(cc1NC(=O)CN1CCC1)-c1c(-c3cccs3)cc(C(=O)N(C)C(C)(C)C)n1CC2 [Example 97, 9-(2-Azetidin-1-yl-acetylamino)-8-methoxy-1-thiophen-2-yl-5,6-dihydro-pyrrolo[2,1-α]isoquinoline-3-carboxylic acid tert-butyl-methyl-amide] | 4 nM

More lines, now with the values ahead:

EC50 | Compound
10 nM | COc1cc2c(cc1CO)-c1c(-c3cccs3)cc(C(=O)N(C)C(C)(C)C)n1CC2 [Example 121a, 9-Hydroxymethyl-8-methoxy-1-thiophen-2-yl-5,6-dihydro-pyrrolo[2,1-α]isoquinoline-3-carboxylic acid tert-butyl-methyl-amide]
0.7 nM | COc1cc2c(cc1C=C(C)C)-c1c(-c3cccs3)cc(C(=O)N(C)C(C)(C)C)n1CC2 [Example 58b, 8-Methoxy-9-(2-methyl-propenyl)-1-thiophen-2-yl-5,6-dihydro-pyrrolo[2,1-α]isoquinoline-3-carboxylic acid tert-butyl-methyl-amide]
102 nM | COc1cc2c(cc1OCCOC1CCCCO1)-c1c(-c3cccs3)cc(C(=O)N(C)C(C)(C)C)n1CC2 (stereo not drawn) [Example 65c, 8-Methoxy-9-[2-(tetrahydro-pyran-2-yloxy)-ethoxy]-1-thiophen-2-yl-5,6-dihydro-pyrrolo[2,1-α]isoquinoline-3-carboxylic acid tert-butyl-methyl-amide]
1.3 nM | COc1cc2c(cc1OCCCO)-c1c(-c3cccs3)cc(C(=O)N(C)C(C)(C)C)n1CC2 [Example 70d, 9-(3-Hydroxy-propoxy)-8-methoxy-1-thiophen-2-yl-5,6-dihydro-pyrrolo[2,1-α]iso-quinoline-3-carboxylic acid tert-butyl-methyl-amide]
11.3 nM | COc1cc2c(cc1Br)-c1c(-c3cccs3)cc(C(=O)N(C)C(C)(C)C)n1CC2 [Example 85a, 9-Bromo-8-methoxy-1-thiophen-2-yl-5,6-dihydro-pyrrolo[2,1--α]isoquinoline-3-carboxylic acid tert-butyl-methyl-amide]
1.7 nM | COc1cc2c(cc1OC(C)C)-c1c(-c3cccs3)cc(C(=O)N3CCCN(C(=O)C4CCC4)CC3)n1CC2 [Example 7c, (4-Cyclobutanecarbonyl-[1,4]diazepan-1-yl)-(9-isopropoxy-8-methoxy-1-thiophen-2-yl-5,6-dihydro-pyrrolo[2,1-α]isoquinolin-3-yl)-methanone]
10.9 nM | COc1cc2c(cc1OCCCN=[N+]=[N-])-c1c(-c3cccs3)cc(C(=O)N(C)C(C)(C)C)n1CC2 [Example 70f, 9-(3-Azido-propoxy)-8-methoxy-1-thiophen-2-yl-5,6-dihydro-pyrrolo[2,1-α]isoquinoline-3-carboxylic acid tert-butyl-methyl-amide]
